ChEMBL document CHEMBL1140760, “Molecular docking identifies the binding of 3-chloropyridine moieties specifically to the S1 pocket of SARS-CoV Mpro” (Bioorg Med Chem, 2008)

Assay: Inhibition of SARS-CoV Mpro
Set-up: species or system Severe acute respiratory syndrome-related coronavirus
Work on `O=C(Oc1cncc(Cl)c1)c1ccc(-c2ccc(Cl)cc2)o1` yielded an IC50 of 63 nM. `O=C(Oc1cncc(Cl)c1)c1ccccc1[N+](=O)[O-]` gave an IC50 of 333 nM. With `O=C(Oc1cncc(Cl)c1)c1cccc([N+](=O)[O-])c1` the IC50 was 684 nM. `O=C(Oc1cncc(Cl)c1)c1ccc(-c2ccc(Cl)cc2[N+](=O)[O-])o1` showed an IC50 of 122 nM. Compound `O=C(Oc1cncc(Cl)c1)c1ccc(-c2cccc([N+](=O)[O-])c2)o1` has an IC50 of 500 nM. Compound `O=C(Oc1cncc(Cl)c1)c1cc2ccccc2oc1=O` has an IC50 of 108 nM. `O=C(Oc1cncc(Cl)c1)c1ccc(-c2ccc([N+](=O)[O-])cc2)o1` gave an IC50 of 60 nM. For `O=C(Oc1cncc(Cl)c1)c1ccc(-c2ccccc2[N+](=O)[O-])o1`, the IC50 was 208 nM. With `O=C(Oc1cncc(Cl)c1)c1cccc2ccccc12` the IC50 was 124 nM.
